Like-named read-outs stand apart in the source and are kept apart here.
Columns and labels:
C57BL/6J mice [1] = details: Hanania et al. 2005; cited from earlier work
mice = details: Hanania et al. 2005, Brody et al. 2003; cited from earlier work
CDK-9/cyclinT1 = CDK-9/cyclinT1 (Homo sapiens, UniProt P50750); assay: CDK panel (Reaction Biology); type: biochemical; details: tested at Reaction Biology, Inc.
CDK-3/cyclinE [2] = target: T1, CDK-3/cyclinE (Homo sapiens, UniProt Q00526); details: read-out: IC50 (μM) CDK-3/cyclinE; tested at Reaction Biology, Inc.
CDK-4/cyclinD1 = CDK-4/cyclinD1 (Homo sapiens, UniProt P11802); assay: CDK panel (Reaction Biology); type: biochemical; details: tested at Reaction Biology, Inc.
CDK-2/cyclinE = CDK-2/cyclinE (Homo sapiens, UniProt P24941); assay: CDK-2/CyclinE inhibition (Reaction Biology); type: biochemical; details: tested at Reaction Biology, Inc.
CDK-6/cyclinD3 = CDK-6/cyclinD3 (Homo sapiens, UniProt Q00534); assay: CDK panel (Reaction Biology); type: biochemical; details: tested at Reaction Biology, Inc.
CDK-5/P25 = CDK-5/P25 (Homo sapiens, UniProt Q00535); assay: CDK panel (Reaction Biology); type: biochemical; details: tested at Reaction Biology, Inc.
[3] = target: T2, recombinant human His6-GSK-3β (Homo sapiens, UniProt P49841); assay: GSK-3β kinase assay, [γ32P] transfer to primed glycogen synthase peptide; type: biochemical; details: 10 μM ATP; 10 μM pGSM peptide; 30 minutes at 30° C.; read-out: IC50 (nM), GSK-3β inhibition;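 also: phosphate incorporation quantified by liquid scintillation counting of the filters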
T2 construct: His6; purchased EMD Biosciences

CDK-2/cyclinA = CDK-2/cyclinA (Homo sapiens, UniProt P24941); assay: CDK panel (Reaction Biology); type: biochemical; details: tested at Reaction Biology, Inc.
CDK-5/P35 = CDK-5/P35 (Homo sapiens, UniProt Q00535); assay: CDK panel (Reaction Biology); type: biochemical; details: tested at Reaction Biology, Inc.
CDK-1/cyclinB = CDK-1/cyclinB (Homo sapiens, UniProt P06493); assay: CDK panel (Reaction Biology); type: biochemical; details: tested at Reaction Biology, Inc.
JAK-2 = JAK-2 (Homo sapiens, UniProt O60674); assay: Kinase panel (Novartis); type: biochemical
IGF-1R = IGF-1R (Homo sapiens, UniProt P08069); assay: Kinase panel (Novartis); type: biochemical
Axl = Axl (Homo sapiens, UniProt P30530); assay: Kinase panel (Novartis); type: biochemical
Ret = Ret (Homo sapiens, UniProt P07949); assay: Kinase panel (Novartis); type: biochemical
c-src = c-src (Homo sapiens, UniProt P12931); assay: Kinase panel (Novartis); type: biochemical
CDK2/A = CDK2/A (Homo sapiens, UniProt P24941); assay: Kinase panel (Novartis); type: biochemical
Tek = Tek (Homo sapiens, UniProt Q02763); assay: Kinase panel (Novartis); type: biochemical
EphB4 = EphB4 (Homo sapiens, UniProt P54760); assay: Kinase panel (Novartis); type: biochemical
PDK1 = target: T3, PDK1 (Homo sapiens, UniProt O15530); assay: Kinase panel (Novartis); type: biochemical
T3 sequence (O15530 1-556): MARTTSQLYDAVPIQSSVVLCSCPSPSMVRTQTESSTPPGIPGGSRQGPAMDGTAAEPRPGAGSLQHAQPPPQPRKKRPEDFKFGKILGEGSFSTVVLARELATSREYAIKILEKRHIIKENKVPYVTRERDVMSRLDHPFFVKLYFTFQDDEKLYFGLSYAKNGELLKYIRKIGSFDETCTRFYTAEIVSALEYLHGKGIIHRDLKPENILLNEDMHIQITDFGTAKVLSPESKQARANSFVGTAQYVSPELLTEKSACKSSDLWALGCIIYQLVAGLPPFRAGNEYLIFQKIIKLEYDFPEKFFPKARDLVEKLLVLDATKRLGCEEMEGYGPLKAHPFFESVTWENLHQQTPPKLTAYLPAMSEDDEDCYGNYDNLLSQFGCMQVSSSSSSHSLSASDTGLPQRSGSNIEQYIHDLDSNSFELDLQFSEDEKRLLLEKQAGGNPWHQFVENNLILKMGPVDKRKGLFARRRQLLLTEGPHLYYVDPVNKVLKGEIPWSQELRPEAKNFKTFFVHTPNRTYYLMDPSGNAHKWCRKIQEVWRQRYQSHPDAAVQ

c-Abl = c-Abl (Homo sapiens, UniProt P00519); assay: Kinase panel (Novartis); type: biochemical
Flt-3 = Flt-3 (Homo sapiens, UniProt P36888); assay: Kinase panel (Novartis); type: biochemical
KDR = KDR (Homo sapiens, UniProt P35968); assay: Kinase panel (Novartis); type: biochemical
FGFR-3-K650E = FGFR-3-K650E (Homo sapiens, UniProt P22607, K650E); assay: Kinase panel (Novartis); type: biochemical
b-Raf-V599E = b-Raf-V599E (Homo sapiens, UniProt P15056, V600E); assay: Kinase panel (Novartis); type: biochemical
c-Abl-T3151 = c-Abl-T3151 (Homo sapiens, UniProt P00519, T315I); assay: Kinase panel (Novartis); type: biochemical
c-Met = c-Met (Homo sapiens, UniProt P08581); assay: Kinase panel (Novartis); type: biochemical
HER-1 = HER-1 (Homo sapiens, UniProt P00533); assay: Kinase panel (Novartis); type: biochemical
FAK = FAK (Homo sapiens, UniProt Q05397); assay: Kinase panel (Novartis); type: biochemical
CDK-3/cyclinE [4] = target: T1, CDK-3/cyclinE; assay: biochemical
SKOV3 = assay: Antiproliferation assay, ovarian cancer cells; type: cell-based; details: Homo sapiens, SK-OV-3; ovarian cancer cell proliferation
Experimental: (§1) The pancreatic cancer cell lines BxPc-3, HupT3, MiaPaCa-2, Panc 04.03, and SU86.86 were obtained from ATCC (Rockville, Md.) and were grown in medium (DMEM or RPMI) containing 10% fetal calf serum and L-glutamine. Pancreatic cancer cells were plated out in duplicate into 6-wells of a 96-well microtiter plate at 2.5−4×10^3 cells per well. Four-hours post plating, individual wells were treated with diluent (DMSO) or varying concentrations of commercial compounds, AR-A014418 and SB216763, or the indicated GSK inhibitors of this invention from a concentration of 1 nM to 50 microM. […] The IC50s were calculated using XLfit (IDBS Limited, Guildford, UK).
(§2) Similar antiproliferation assays were performed using ovarian cancer cells. Compound 40 is of particular interest for inhibition of ovarian cancer cell proliferation.

OVCA432 = assay: Antiproliferation assay, ovarian cancer cells; type: cell-based; details: ovarian cancer cell proliferation
Experimental: as §1, §2

[5] = system: M-17 cancer cells co-transfected with α-Syn and DAT; assay: Neuroprotection against MPP+-mediated cell death, MTT assay; type: cell-based; details: MPP+ 48 h, inhibitor 0.1-10,000 nM
From the text: GSK-3β inhibitors are examined for their capacity to interfere with two of the regulated processes playing an important role in the MPP+-induced model (MPP+ is N-methyl-4-phenylpyridinium) of neurodegeneration: Tau phosphorylation at the PHF-1 binding site (PHF-Tau; epitope which belongs to AD-like Tau antigenicity) and α-Syn-induced toxicity. Compounds are screened in in vitro assays, where their neuroprotective effects to protect against MPP+-mediated cell death was estimated. The cell assays are conducted as follows: M-17 cancer cells are co-transfected with α-Syn and DAT at a 3:1 DNA mimicking that found in Substantia nigra ratio, as we have described previously (Wersinger, C., et al The FASEB journal 2003, 17, 2151-2153). Cells are treated with MPP^+ for 48 h in the absence and presence of increasing amounts of GSK-3β inhibitors [0.1-10,000 nM], and cell death was measured by MTT (Thiazolyl Blue Tetrazolium Bromide) assays. Under these conditions, MPP^+ caused ˜80% cell death.

PKCα = PKCα (Homo sapiens, UniProt P17252); assay: Kinase panel (Novartis); type: biochemical
[6] = Passage of the brain-blood barrier in animal models; type: in vivo; details: as assessed in animal models
C57BL/6J mice [7] = assay: Amphetamine/chlordiazepoxide hyperactivity model of mania, open field locomotor activity; type: in vivo; details: 5-ING-135 50 mg/kg, 5 min pretreatment; amphetamine 4 mg/kg + chlordiazepoxide 2.5 mg/kg; 60 min
Experimental: Hyperactivity models are often used to mimic the mania associated with bipolar disorder.
Certain benzofuran-based ligands of this invention were studied in a novel mouse model of mania that has recently been validated with several clinically effective mood stabilizers. […] Mice were then injected with amphetamine (4 mg/kg) or amphetamine (4 mg/kg) and chlordiazepoxide (2.5 mg/kg) and locomotor activity was monitored for 60 min. The open field is a square box surrounded by an array of infra-red beams and their behavior is automatically recorded for 60 minutes in the open field test chamber (10.75″×10.75″×8″H with infra-red (I/R) array, model ENV 510, MED Associates). After this period the animals were returned to their home cages and then to the main colony.
Control treatments are as indicated. FIG. 1B illustrates similar locomotion activity data of treated mice measured in cm over 5 minute intervals for 60 minutes.

HupT3 = assay: Antiproliferation MTS assay, pancreatic cancer cells; type: cell-based; details: Homo sapiens, HuP-T3, as reported in Gaisina et al. (2009) J. Med. Chem. 52(7), 1853-1863
JNK1 = JNK1 (Homo sapiens, UniProt P45983); assay: Kinase panel (Novartis); type: biochemical
MIAPaCa-2 = assay: Antiproliferation MTS assay, pancreatic cancer cells; type: cell-based; details: Homo sapiens

Chain of CDK-1/cyclinB (P06493 whole entry, species assumed): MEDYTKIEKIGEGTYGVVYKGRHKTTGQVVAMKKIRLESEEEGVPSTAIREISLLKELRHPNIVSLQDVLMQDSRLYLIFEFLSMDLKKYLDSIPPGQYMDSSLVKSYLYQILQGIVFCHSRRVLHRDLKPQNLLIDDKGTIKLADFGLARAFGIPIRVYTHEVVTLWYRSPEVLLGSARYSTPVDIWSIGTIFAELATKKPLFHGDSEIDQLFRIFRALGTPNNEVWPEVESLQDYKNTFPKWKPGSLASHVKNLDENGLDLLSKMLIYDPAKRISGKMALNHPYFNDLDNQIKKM
Chain of CDK-1/cyclinB (P14635 whole entry partner, species assumed): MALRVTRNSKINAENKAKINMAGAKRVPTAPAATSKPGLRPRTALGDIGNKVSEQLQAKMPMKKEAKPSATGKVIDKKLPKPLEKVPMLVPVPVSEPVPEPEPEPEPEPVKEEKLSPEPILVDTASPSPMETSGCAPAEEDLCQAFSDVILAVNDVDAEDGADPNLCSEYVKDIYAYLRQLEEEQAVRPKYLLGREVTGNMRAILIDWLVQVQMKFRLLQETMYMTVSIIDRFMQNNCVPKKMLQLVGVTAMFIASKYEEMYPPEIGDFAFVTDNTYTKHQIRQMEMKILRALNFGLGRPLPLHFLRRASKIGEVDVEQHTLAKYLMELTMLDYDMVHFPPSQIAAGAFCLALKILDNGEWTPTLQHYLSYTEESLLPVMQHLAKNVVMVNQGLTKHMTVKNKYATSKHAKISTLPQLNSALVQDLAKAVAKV
Chain of CDK-4/cyclinD1 (P11802 whole entry, species assumed): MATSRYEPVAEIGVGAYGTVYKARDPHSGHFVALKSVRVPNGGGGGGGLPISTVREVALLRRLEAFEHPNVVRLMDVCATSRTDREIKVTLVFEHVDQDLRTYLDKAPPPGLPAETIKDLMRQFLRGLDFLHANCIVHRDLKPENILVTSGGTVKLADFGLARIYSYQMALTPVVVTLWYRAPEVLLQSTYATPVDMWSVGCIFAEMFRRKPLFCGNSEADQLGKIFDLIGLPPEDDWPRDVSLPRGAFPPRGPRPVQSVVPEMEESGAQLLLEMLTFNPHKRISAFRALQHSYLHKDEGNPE
Chain of CDK-4/cyclinD1 (P24385 whole entry partner, species assumed): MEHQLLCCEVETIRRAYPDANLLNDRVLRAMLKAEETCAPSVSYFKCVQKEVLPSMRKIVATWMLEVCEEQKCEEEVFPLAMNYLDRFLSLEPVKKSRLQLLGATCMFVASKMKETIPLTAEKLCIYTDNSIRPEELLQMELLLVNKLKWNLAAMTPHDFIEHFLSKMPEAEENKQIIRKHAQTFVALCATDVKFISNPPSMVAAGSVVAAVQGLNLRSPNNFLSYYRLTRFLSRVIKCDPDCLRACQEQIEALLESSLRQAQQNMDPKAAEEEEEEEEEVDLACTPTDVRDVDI
T2 sequence (P49841 whole entry): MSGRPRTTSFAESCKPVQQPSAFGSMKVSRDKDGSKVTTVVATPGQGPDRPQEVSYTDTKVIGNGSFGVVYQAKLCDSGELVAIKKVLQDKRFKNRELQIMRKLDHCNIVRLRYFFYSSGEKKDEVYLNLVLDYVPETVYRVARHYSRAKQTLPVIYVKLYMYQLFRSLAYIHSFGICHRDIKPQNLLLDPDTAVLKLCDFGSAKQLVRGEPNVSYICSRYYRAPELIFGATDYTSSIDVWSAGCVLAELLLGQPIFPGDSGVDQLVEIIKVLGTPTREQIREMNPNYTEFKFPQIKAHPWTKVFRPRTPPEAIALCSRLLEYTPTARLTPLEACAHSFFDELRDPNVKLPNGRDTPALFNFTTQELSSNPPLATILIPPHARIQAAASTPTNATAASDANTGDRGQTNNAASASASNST
Chain of CDK-9/cyclinT1 (P50750 whole entry, species assumed): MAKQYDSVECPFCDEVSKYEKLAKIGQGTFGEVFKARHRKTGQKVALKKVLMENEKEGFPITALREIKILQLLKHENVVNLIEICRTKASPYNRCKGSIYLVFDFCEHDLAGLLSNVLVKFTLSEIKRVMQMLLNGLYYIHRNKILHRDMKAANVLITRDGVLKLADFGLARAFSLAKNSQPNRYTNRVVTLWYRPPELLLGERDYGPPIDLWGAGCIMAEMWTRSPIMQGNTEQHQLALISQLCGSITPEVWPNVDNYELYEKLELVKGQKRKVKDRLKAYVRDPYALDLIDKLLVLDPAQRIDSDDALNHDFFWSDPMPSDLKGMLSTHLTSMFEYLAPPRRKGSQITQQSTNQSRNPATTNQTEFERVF
Chain of CDK-9/cyclinT1 (O60563 whole entry partner, species assumed): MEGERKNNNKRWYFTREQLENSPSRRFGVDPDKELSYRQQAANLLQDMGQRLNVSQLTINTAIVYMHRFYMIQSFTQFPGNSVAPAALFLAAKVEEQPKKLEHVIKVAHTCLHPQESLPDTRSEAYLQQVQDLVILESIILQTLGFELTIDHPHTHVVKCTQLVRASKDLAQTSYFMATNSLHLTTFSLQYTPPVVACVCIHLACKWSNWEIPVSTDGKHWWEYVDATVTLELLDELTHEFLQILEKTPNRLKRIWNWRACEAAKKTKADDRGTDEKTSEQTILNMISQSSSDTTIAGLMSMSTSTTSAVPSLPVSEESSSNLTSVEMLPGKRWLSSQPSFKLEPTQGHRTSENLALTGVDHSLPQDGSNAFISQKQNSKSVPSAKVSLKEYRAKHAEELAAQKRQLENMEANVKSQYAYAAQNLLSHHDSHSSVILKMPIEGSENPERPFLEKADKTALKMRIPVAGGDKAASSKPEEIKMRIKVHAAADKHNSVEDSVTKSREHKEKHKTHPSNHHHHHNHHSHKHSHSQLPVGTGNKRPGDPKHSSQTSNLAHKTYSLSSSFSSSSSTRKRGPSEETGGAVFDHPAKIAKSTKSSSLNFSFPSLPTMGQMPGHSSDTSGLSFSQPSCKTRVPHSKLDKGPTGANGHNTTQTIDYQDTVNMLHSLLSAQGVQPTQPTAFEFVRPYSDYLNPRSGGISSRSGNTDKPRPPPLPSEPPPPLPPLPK
Chain of CDK-6/cyclinD3 (Q00534 whole entry, species assumed): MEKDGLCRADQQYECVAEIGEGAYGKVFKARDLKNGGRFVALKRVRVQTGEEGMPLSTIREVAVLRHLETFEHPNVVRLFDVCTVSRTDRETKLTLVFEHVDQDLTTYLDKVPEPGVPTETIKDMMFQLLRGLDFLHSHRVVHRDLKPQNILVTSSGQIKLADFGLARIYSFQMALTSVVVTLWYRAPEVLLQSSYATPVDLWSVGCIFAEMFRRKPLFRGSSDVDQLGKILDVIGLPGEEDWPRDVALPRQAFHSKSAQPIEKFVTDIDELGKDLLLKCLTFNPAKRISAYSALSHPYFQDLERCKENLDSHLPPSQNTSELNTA
Chain of CDK-6/cyclinD3 (P30281 whole entry partner, species assumed): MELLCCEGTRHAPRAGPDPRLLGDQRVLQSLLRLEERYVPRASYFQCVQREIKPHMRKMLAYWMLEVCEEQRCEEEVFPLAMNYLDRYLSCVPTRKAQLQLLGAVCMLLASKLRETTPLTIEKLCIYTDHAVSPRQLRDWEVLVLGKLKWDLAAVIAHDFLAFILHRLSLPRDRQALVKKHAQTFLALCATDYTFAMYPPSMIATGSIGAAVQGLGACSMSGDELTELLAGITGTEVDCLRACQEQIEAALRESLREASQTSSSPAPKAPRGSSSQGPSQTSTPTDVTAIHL
Chain of KDR (P35968 20-1356, species assumed): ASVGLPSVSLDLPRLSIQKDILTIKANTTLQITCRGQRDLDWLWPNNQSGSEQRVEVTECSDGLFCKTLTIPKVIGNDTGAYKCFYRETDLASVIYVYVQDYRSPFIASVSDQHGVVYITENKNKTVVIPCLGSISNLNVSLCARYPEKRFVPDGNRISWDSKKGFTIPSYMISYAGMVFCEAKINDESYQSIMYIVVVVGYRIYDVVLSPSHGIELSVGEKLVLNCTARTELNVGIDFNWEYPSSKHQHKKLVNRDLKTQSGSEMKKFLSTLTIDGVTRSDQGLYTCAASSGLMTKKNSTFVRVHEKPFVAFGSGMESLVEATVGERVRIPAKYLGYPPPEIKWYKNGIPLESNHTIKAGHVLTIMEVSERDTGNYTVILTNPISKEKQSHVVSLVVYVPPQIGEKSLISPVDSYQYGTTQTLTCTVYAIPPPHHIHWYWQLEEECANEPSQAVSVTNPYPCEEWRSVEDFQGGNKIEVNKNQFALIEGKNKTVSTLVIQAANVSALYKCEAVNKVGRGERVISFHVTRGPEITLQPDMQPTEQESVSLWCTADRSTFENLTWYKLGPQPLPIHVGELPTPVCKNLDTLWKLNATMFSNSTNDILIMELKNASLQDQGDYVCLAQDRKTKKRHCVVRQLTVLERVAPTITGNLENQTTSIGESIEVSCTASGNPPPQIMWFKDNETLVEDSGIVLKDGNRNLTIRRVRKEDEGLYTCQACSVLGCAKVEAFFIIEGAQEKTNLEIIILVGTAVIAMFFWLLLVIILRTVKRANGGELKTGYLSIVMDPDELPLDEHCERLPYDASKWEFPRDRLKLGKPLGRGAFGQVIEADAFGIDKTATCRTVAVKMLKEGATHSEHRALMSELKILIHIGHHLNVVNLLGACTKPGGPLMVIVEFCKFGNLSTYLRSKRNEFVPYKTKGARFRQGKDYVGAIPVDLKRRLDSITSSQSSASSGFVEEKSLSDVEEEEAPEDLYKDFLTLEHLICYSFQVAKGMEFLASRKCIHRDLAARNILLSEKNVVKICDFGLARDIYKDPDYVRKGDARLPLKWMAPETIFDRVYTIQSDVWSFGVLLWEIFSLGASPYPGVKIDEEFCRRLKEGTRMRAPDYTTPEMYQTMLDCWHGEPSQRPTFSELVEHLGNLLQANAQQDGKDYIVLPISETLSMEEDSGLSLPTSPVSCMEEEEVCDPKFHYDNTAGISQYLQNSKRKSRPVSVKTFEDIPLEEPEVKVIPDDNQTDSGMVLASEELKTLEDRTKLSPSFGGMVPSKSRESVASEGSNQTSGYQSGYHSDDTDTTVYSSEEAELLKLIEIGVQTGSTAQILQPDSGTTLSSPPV

IC50 (JAK-2) [µM]	IC50 (IGF-1R) [µM]	IC50 (Axl) [µM]	IC50 (Ret) [µM]	IC50 (c-src) [µM]	IC50 (CDK2/A) [µM]	IC50 (Tek) [µM]	IC50 (EphB4) [µM]	IC50 (PDK1) [µM]	IC50 (c-Abl) [µM]	Structure (SMILES)	IC50 (CDK-9/cyclinT1) [µM]	IC50 (CDK-3/cyclinE [2]) [µM]	IC50 (CDK-4/cyclinD1) [µM]	IC50 (CDK-2/cyclinE) [nM]	IC50 (CDK-6/cyclinD3) [µM]	IC50 (CDK-5/P25) [µM]	IC50 [3] [nM]	IC50 (CDK-2/cyclinA) [µM]	IC50 (CDK-5/P35) [µM]	IC50 (CDK-1/cyclinB) [µM]	other results
–	–	–	–	–	–	–	–	–	–	Nc1nnc(-c2cccc(Cl)c2Cl)c(N)n1 [lamotrigine]	–	–	–	–	–	–	–	–	–	–	Block of CDP + amphetamine hyperactivity by mood stabilizers (C57BL/6J mice [1]): blocked; Sensorimotor gating (prepulse inhibition) (mice): improve sensorimotor gating
–	–	–	–	–	–	–	–	–	–	COCc1cccc2c(C3=C(c4coc5ccccc45)C(=O)NC3=O)cn(C)c12 [Compound 52, 3-Benzofuran-3-yl-4-(7-methoxymethyl-1-methyl-1H-indol-3-yl)-pyrrole-2,5-dione]	16	17.7	8.62	3880	8.33	12.9	0.23 ± 0.04	4.09	12.7	8.53	–
> 10	> 10	> 10	5	4.5	> 10	> 10	> 10	0.73	> 10	Cn1cc(C2=C(c3coc4ccccc34)C(=O)NC2=O)c2ccc(O)cc21 [Compound 45, 3-Benzofuran-3-yl-4-(6-hydroxy-1-methyl-1H-indol-3-yl)-pyrrole-2,5-dione]	–	–	–	–	–	–	15 ± 3	–	–	–	IC50 (Flt-3): > 10 µM; IC50 (KDR): 2.2 µM; IC50 (FGFR-3-K650E): 7 µM; IC50 (b-Raf-V599E): > 10 µM; IC50 (c-Abl-T3151): > 10 µM; IC50 (c-Met): > 10 µM; IC50 (HER-1): 6.3 µM; IC50 (FAK): > 10 µM
–	–	–	–	–	–	–	–	–	–	COc1cccc2c(C3=C(c4cn(C)c5cc(Cl)c(F)cc45)C(=O)NC3=O)coc12 [Compound 15, 3-(6-Chloro-5-fluoro-1-methyl-1H-indol-3-yl)-4-(7-methoxy-benzofuran-3-yl)-pyrrole-2,5-dione]	> 100	–	59.5	99000	165	108	260 ± 32	27.2	61.6	46.2	IC50 (CDK-3/cyclinE [4]): > 100 µM; IC50 (SKOV3): 42.7 µM; IC50 (OVCA432): 10.7 µM; Neuroprotection against MPP+ (percent cell recovery, FIG. 2) [5]: neuroprotection of the cells
> 10	> 10	> 10	> 10	> 10	3.98	> 10	> 10	> 10	> 10	Cn1cc(C2=C(c3coc4ccccc34)C(=O)NC2=O)c2cc(Br)ccc21 [Compound 19, 3-Benzofuran-3-yl-4-(5-bromo-1-methyl-1H-indol-3-yl)-pyrrole-2,5-dione]	–	–	–	–	–	–	–	–	–	–	IC50 (PKCα): 61.4 µM; Ki (CDK2/A): 189 nM; IC50 (SKOV3): 74.5 µM; IC50 (OVCA432): 33.6 µM; Ability to pass the brain-blood barrier [6]: ability to pass the brain-blood barrier; Inhibition of hyperactivity produced by amphetamine/chlordiazepoxide (locomotor activity) (C57BL/6J mice [7]): inhibited the hyperactivity; IC50 (HupT3): 43 ± 6.3 µM; IC50 (Flt-3): > 10 µM; IC50 (JNK1): > 10 µM; IC50 (KDR): > 10 µM; IC50 (FGFR-3-K650E): > 10 µM; IC50 (b-Raf-V599E): > 10 µM; IC50 (MIAPaCa-2; MIA PaCa-2, as reported in Gaisina et al. (2009) J. Med. Chem. 52(7), 1853-1863): 30 ± 2.2 µM; IC50 (MIAPaCa-2; MIA PaCa-2, 72 hrs, MTS): 30 µM; IC50 (c-Abl-T3151): > 10 µM; IC50 (c-Met): > 10 µM; IC50 (HER-1): > 10 µM; IC50 (FAK): > 10 µM
–	–	–	–	–	–	–	–	–	–	Cn1cc(C2=C(c3coc4cc(CO)ccc34)C(=O)NC2=O)c2cc(F)c(Cl)cc21 [Compound 13, 3-(6-Chloro-5-fluoro-1-methyl-1H-indol-3-yl)-4-(6-hydroxymethyl-benzofuran-3-yl)-pyrrole-2,5-dione]	5.4	25.1	18.3	11700	11.6	–	0.95 ± 0.19	10.6	–	13.4	–

Reference: US8207216B2, “Benzofuran-3-yl(indol-3-yl) maleimides as potent GSK3 inhibitors” (The Board of Trustees of the University of Illinois, priority 2006, dated 2012)
